Source: patent publication US20240131198A1, “RATIOMETRIC BIOSENSOR TATTOOS AND USE THEREOF FOR REAL TIME MEASUREMENTS” (priority 2022, published 2024)

Assays:
rat skin = test: Delivery of Cy5-PEG/Cy3-PEG microneedle tattoo to the shaved skin of living rats; assay type: in vivo; conditions: MN delivery, fluorescence stereomicroscopy several hours after application
[1] = 50 μM/500 μM of FeSO4:H2O2, 10 μM dye
[2] = test system: inflammatory filaggrin-deficient (FLG-) skin model; test: H-Cy5-PEG/Cy7.5-PEG microneedle tattoo in human-based atopic skin model; assay type: cell-based; conditions: human-based atopic model of skin inflammation, 20 minutes
Method: To provide the proof of concept for our approach and to validate the potential use of a medical tattoo in a biological system, the sensing properties of the generated MNs were tested in human-based inflammatory skin model that closely emulates characteristics of atopic skin in vitro^[76] and has been previously verified for the presence of disease-relevant ROS.^[77] This model has been extensively characterized in previous work showing excellent correlation with atopic skin in vivo.^[76,78,79] The skin model is based on a filaggrin knockdown, as filaggrin mutations are a major pre-disposing factor for AD.^[80] […] Cy7.5 was selected based on its structural similarity to Cy5 and other cyanines, displaying similar physicochemical properties and allowing PEGylation in the same manner as Cy5, as well as its NIR fluorescence (λex=788 nm; λem=808 nm), optimal for visibility in the skin. […]
The MNs rapidly dissolved within 2 minutes, after which the backing layer was carefully removed. The fluorescence intensities of the sensor and reference dye in the skin models were determined using an IVIS Lumina II imaging system (Perkin Elmer) at 0, 5, 15 and 20 mins after MN application. […] The fluorescence signal for each model was assessed by selecting a region of interest (ROI) and by the signal-to-noise ratio (Cy5 ROI/Cy7.5 ROI).

UV-induced dermal ROS = test: In vivo sensing of UV irradiation-induced ROS in rat skin; parameters: species or system Sprague-Dawley rats; conditions: 30 minutes after application, t=0 h and t=24 h after irradiation
From the text: Male Sprague-Dawley rats (Charles River, St-Constant, QC) with weight ranging from 300-350 g at delivery were used for this study. Following arrival in the animal facility, all animals were subjected to a general health evaluation. An acclimation period of 5 days was allowed before the beginning of the study. Each animal cage was equipped with a manual water distribution system. A standard certified commercial rodent diet was provided ad libitum. Tap water was provided ad libitum at all times. Rats dorsal skin was shaved and depilated under isoflurane-induced anesthesia using an electric razor and depilating cream (Nair, Church & Dwight) the day before experimentation. Rats were extensively rinsed to prevent burning with residual depilating agent. For irradiation, animals were anesthetized with isoflurane and placed under the UV irradiating lamp (Daavlin 24″ research unit×305/350-6/6) equipped with a UV power meter to manually validate constant dosimetry. Irradiated animal received 700 mJ·cm^2 of UVB. […] Three MN arrays were applied at the same time on different sites of the dorsal skin. MNs were removed, and the application sites were scanned for fluorescence using the portable fluorescence reader. On the first day, sites were read after 0.5, 1, 4, and 6 h. On the second day, new MNs were applied and read immediately or 6 h after application. […]

[3] = Reoxidation of H-Cy5-PEG/Cy7.5-PEG microneedle tattoo in excised porcine skin; conditions: H2O2 (100 mM) or Fenton's reagent (40 μM/400 μM), portable fluorescence reader
Method: Microneedle tattoos containing both the sensor and reference dye were delivered ex vivo to excised porcine skin that had been treated with either distilled water (control), or a source of ROS—either H2O2 (100 mM) or Fenton's reagent (40 μM/400 μM).
Excised porcine skin was obtained and shaved using a manual blade razor to remove any hair. The skin was permeabilized using a 1.0 mm dermaroller (DermaRollerSystem.com, Markham, ON), 200 μL of either distilled H2O, 100 mM H2O2, or Fenton's Reagent (40 μM FeSO4/400 μM H2O2) was added and allowed to soak into the skin for 20 minutes, after which any excess was removed with a paper towel. […] After removal of the MN backing layer, the fluorescence of the application site was measured with the portable fluorescence reader, using both the Cy5 and Cy7.5 filters (Cy5: λex=638 nm, λem=668-702 nm; Cy7.5: λex=782 nm, λem=810-840 nm). For each MN application, 3 measurements were recorded at each wavelength.

Molecule	diffusion in the skin (rat skin)	signal retained when exposed to ROS [1] [%]	Cy7.5-PEG fluorescence intensity over time [2]	Cy7.5-PEG fluorescence intensity after application in vivo (UV-induced dermal ROS)	fluorescence at Cy7.5-PEG wavelengths in the presence of ROS [3]
CN1/C(=C/C=C/C2=[N+](CCCCCC(=O)O)c3ccccc3C2(C)C)C(C)(C)c2ccccc21 [Cy3, Cyanine-3]	minimal diffusion	40			
CN1/C(=C/C=C/C=C/C2=[N+](CCCCCC(=O)O)c3ccccc3C2(C)C)C(C)(C)c2ccccc21 [Cy5, Cyanine-5]	minimal diffusion				
Cyanine-7.5-PEG [Cy7.5-PEG]			did not decrease	no significant decrease	unaffected
